pIC50: −log10 of the molar value.
The compounds below were run on Plasmodium falciparum (assay: OSM: Inhibition of Plasmodium falciparum 3D7 growth. IC50 values determined from 21 point dose response curves. Avery Group Griffith.).
Type: functional, organism-based

`CCN(CC(=O)Nc1c(F)cccc1F)C(=O)c1cc(C)n(-c2ccc(F)cc2)c1C` and `Cc1cc(C(=O)N(C)CC(N)=O)c(C)n1-c1ccc(F)cc1` cannot be ordered by pIC50: under 4.40 for the first, under 4.40 for the second.

`NS(=O)(=O)c1ccc(CNc2nc(-c3ccsc3)nc3ccccc23)cc1` and `NS(=O)(=O)c1cccc(CNc2ncnc3ccsc23)c1` cannot be ordered by pIC50: under 4.40 for the first, under 4.40 for the second.

`COc1ccc(S(=O)(=O)N2CCC(Nc3ncnc4ccsc34)CC2)cc1` and `CC(Nc1ncnc2ccsc12)c1cccc(S(N)(=O)=O)c1` (stereo not drawn) cannot be ordered by pIC50: under 4.40 for the first, under 4.40 for the second.

`Cc1c(-c2nc(C(N)=O)co2)cnn1-c1ccc(F)cc1` and `Cc1c(-c2nc(C(=O)O)co2)cnn1-c1ccc(F)cc1` cannot be ordered by pIC50: under 4.40 for the first, under 4.40 for the second.

`Cc1cc(C(=O)N2CCNC(=O)C2)c(C)n1-c1ccccc1` and `Cc1cc(C(=O)NCC(=O)N(C)C)c(C)n1-c1ccccc1` cannot be ordered by pIC50: under 4.40 for the first, under 4.40 for the second.

`Cc1ccc(Nc2ncnc3ccsc23)cc1S(=O)(=O)N(C)C` and `CCOc1ccc(Nc2ncnc3ccsc23)cc1S(=O)(=O)N(C)C` cannot be ordered by pIC50: under 4.40 for the first, under 4.40 for the second.

`CCOC(=O)C(C)OC(=O)c1cc(C)n(-c2ccc(F)cc2)c1C` (stereo not drawn) and `Cc1cc(C(=O)OC(C)C(=O)O)c(C)n1-c1ccc(F)cc1` (stereo not drawn) cannot be ordered by pIC50: under 4.40 for the first, under 4.40 for the second.

`Cc1c(C(=O)OCC(N)=O)cnn1-c1ccccc1` and `NC(=O)COC(=O)c1cnn(-c2ccc(F)cc2)c1` cannot be ordered by pIC50: under 4.40 for the first, under 4.40 for the second.

`Cc1cc(C(=O)OCC(=O)N(C)C)c(C)n1-c1ccc(F)cc1` and `CNC(=O)COC(=O)c1cc(C)n(-c2ccc(F)cc2)c1C` are within 0.2 log units of each other in pIC50: 4.95 for the first, 5.03 for the second.

Going from `CNC(=O)CN1CCC(NCc2cc(C)n(-c3ccc(Cl)cc3)c2C)CC1` to `Cc1cc(CNC2CCN(Cc3ccccc3)CC2)c(C)n1-c1ccc(F)cc1`, the pIC50 rises from 4.83 to 5.32 (0.49 log units).

`Cc1cc(C(=O)CCC(=O)O)c(C)n1-c1ccc(F)cc1` and `CNC(=O)CCC(=O)c1cc(C)n(-c2ccc(F)cc2)c1C` cannot be ordered by pIC50: under 4.40 for the first, under 4.40 for the second.

`COC(=O)c1coc(-c2cc(C)n(-c3ccc(F)cc3)c2C)n1` and `Cc1cc(-c2nc(C(=O)O)co2)c(C)n1-c1ccc(F)cc1` cannot be ordered by pIC50: under 4.40 for the first, under 4.40 for the second.

`Cc1cc(C(=O)CCC(=O)N(C)C)c(C)n1-c1ccc(F)cc1` and `Cc1cc(C(=O)N(C)C)c(C)n1-c1ccc(F)cc1` cannot be ordered by pIC50: under 4.40 for the first, under 4.40 for the second.

`Cc1cc(CNCC(N)=O)c(C)n1-c1ccc(F)cc1` and `Cc1cc(CN(C)CC(N)=O)c(C)n1-c1ccc(F)cc1` cannot be ordered by pIC50: under 4.40 for the first, under 4.40 for the second.

Going from `c1nc(N2CCOCC2)c2sccc2n1` to `Clc1ncnc2ccsc12`, the pIC50 rises from under 4.40 to 5.03.

`COc1cccc(NC(=O)CSc2nnc(-c3cc(C)n(-c4ccccc4)c3C)o2)c1` and `COC(=O)[C@@H]1COC(c2cc(C)n(-c3ccc(F)cc3)c2C)=N1` cannot be ordered by pIC50: under 4.40 for the first, under 4.40 for the second.

`COC(=O)c1sccc1NC=O` and `COC(=O)c1coc(-c2cnn(-c3ccc(F)cc3)c2C)n1` cannot be ordered by pIC50: under 4.40 for the first, under 4.40 for the second.

Compared with `CNS(=O)(=O)c1ccc(CNc2ncnc3cc(-c4ccc(OC)cc4)sc23)s1`, `O=S(=O)(Nc1ncnc2sc(-c3ccccc3)cc12)c1ccccc1` is lower in pIC50: 4.75 for the first, under 4.40 for the second. The first is the more potent here.

First: CCc1ccc(-n2c(C)cc(CN3CCC(C(=O)O)CC3)c2C)cc1
Second: CCNC(=O)C1CC(N)CN1Cc1cc(C)n(-c2ccccc2Cl)c1C (stereo not drawn)
The pIC50 of the first is lower: under 4.40 for the first, 4.61 for the second. The second is the more potent here.

`COC(=O)[C@H](CO)NC(=O)c1cc(C)n(-c2ccc(F)cc2)c1C` and `Cc1cc(C(=O)OC(C)(C)C(N)=O)c(C)n1-c1ccc(F)cc1` cannot be ordered by pIC50: under 4.40 for the first, under 4.40 for the second.

`Nc1ncnc2ccsc12` and `Oc1ncnc2cc(I)sc12` cannot be ordered by pIC50: under 4.40 for the first, under 4.40 for the second.

`CN(C)C(=O)n1cnc(S(=O)(=O)N(C)c2ccccc2)n1` and `CN(C)C(=O)n1cnc(SCc2ccccc2)n1` are within 0.2 log units of each other in pIC50: 6.48 for the first, 6.36 for the second.

First: c1ccc(CSc2nc[nH]n2)cc1
Second: Cc1cc(C(=O)N(C(=O)NC2CCCCC2)C2CCCCC2)c(C)n1-c1ccc(F)cc1
The pIC50 of the first is lower: under 4.40 for the first, 5.11 for the second. The second is the more potent here.

Each compound was assayed on Plasmodium falciparum (assay: OSM: Inhibition of Plasmodium falciparum 3D7 growth using a SYBR green I fluorescence based assay. GSK Tres Cantos.).
Type: functional, organism-based

Going from `O=C1C(O)=C([C@H]2CC[C@H](c3ccc(Cl)cc3)CC2)C(=O)c2ccccc21` [ATOVAQUONE] to `C[C@H]1[C@H](OC(=O)CCC(=O)O)O[C@@H]2O[C@@]3(C)CC[C@H]4[C@H](C)CC[C@@H]1[C@@]24OO3` [ARTESUNATE], the pIC50 falls from 9.00 to 7.72 (1.28 log units).
